# Measured values taken from patent US8440627B2, “G protein coupled receptor agonists and antagonists and methods of use” (Tufts Medical Center, Inc., priority 2004, dated 2013).
# Ends that are not written are not given here.
# What was measured:
# human platelets = experiment: Human platelet aggregation to thrombin; format: cell-based; conditions: thrombin greater than 11 nM; RWJ-56110 supplemented with PAR1-blocking antibody plus bivalirudin
# healthy untreated mice = experiment: Peripheral leukocyte counts in healthy mice; format: in vivo; conditions: sub-Q once per day 2.5 mg/kg day 1, 1.0 mg/kg days 2-6, one week
# Description: (§1) The long-term effects of the chemokine pepducins on peripheral leukocyte counts were assessed in healthy untreated mice. Pepducins were injected once per day sub-Q (2.5 mg/kg day 1, 1.0 mg/kg days 2-6) and circulating leukocyte levels measured over a one week period. […] The effects of the chemokine pepducins on peripheral leukocyte count were quite similar in septic mice subjected to cecal ligation and puncture (CLP).
# [1] = tested on: mice subjected to cecal ligation and puncture (CLP); experiment: Cecal ligation and puncture (CLP) sepsis: survival and body weight; format: in vivo
# Description: The time point selected for treatment is at the induction of non-lethal sepsis by cecal ligation and puncture (CLP). After an initial dose of 2.5 mg/kg, 1 mg/kg pepducin (or vehicle) was injected into the mice subcutaneously each day for six days. *: Four mice out of the vehicle-treated group were sacrificed after six days; #: one mouse out of the groups treated with x1/2i1LCA10 pepducin was sacrificed on day 6, and all remaining surviving mice were sacrificed at 17 days. […] In the left panel, mice were treated with x1/2pal16, x1/2i1LCA10 or vehicle (20% DMSO) at the time point of CLP. In the right panel, mice were monitored for body weight every day.
# There are only few reports where treatment of sepsis is sufficient, even after the onset of systemic inflammatory response syndrome. […] The time point selected for treatment is […] the induction of non-lethal sepsis by cecal ligation and puncture (CLP). […] In the right panel, mice were monitored for their body weight every day.
# CLP was performed on 6 to 8 week old female CF-1 mice. […] In the left panel, mice were monitored for body weight every day. […]
# The diagnosis of sepsis is often delayed and agents cannot be readily administered in a preventative mode, therefore pepducin treatment was withheld until 8 h after the CLP procedure. […]
# [2] = tested on: thioglycollate peritonitis model in mice; experiment: Thioglycollate peritonitis model: leukocyte recruitment into the peritoneal cavity; format: in vivo
# Description: Mice were injected with 1 mL of 3% thioglycollate i.p. Thioglycollate induces peritoneal macrophages to secret cytokines and leukocytes are then recruited into the peritoneal cavity. Pepducins were injected i.v. at the indicated doses. After 4 hours, cells were collected by peritoneal lavage, stained with Giemsa and counted under 40× magnification. N=60.
# The effects of the CXCR1/2 and CXCR4 pepducins on neutrophil homeostasis under normal versus pro-inflammatory conditions in mice were evaluated. Leukocyte recruitment was first assessed in a thioglycollate peritonitis model.
# [3] = tested on: mice subjected to cecal ligation and puncture (CLP); experiment: CLP sepsis: peripheral leukocyte count; format: in vivo; conditions: septic mice after CLP, once per day administration, blood 1-17 days
# Source text: It has been shown that SDF-1α and CXCR4 are involved in recruiting immature neutrophils from the bone marrow. High levels of CXCR4 expression and activation lead to homing of senescent neutrophils to the bone marrow, whereas chemokines acting on the CXCR2 receptors of neutrophils, i.e., KC, Gro-α or IL-8, lead to increased neutrophil mobilization. Blood was drawn 1, 3, 5, 7 and 17 days after CLP, and leukocytes were counted. An initial decrease in leukocytes in vehicle-treated mice was observed. […] This observation would match previous reports where either blocking of CXCR4 or stimulation of CXCR2 lead to neutrophilia in the peripheral blood of mice.
# as §1
# CXCR4 [4] = target: T1, CXCR4 (Homo sapiens, UniProt P61073)
# Target sequence in this assay (P61073 whole entry): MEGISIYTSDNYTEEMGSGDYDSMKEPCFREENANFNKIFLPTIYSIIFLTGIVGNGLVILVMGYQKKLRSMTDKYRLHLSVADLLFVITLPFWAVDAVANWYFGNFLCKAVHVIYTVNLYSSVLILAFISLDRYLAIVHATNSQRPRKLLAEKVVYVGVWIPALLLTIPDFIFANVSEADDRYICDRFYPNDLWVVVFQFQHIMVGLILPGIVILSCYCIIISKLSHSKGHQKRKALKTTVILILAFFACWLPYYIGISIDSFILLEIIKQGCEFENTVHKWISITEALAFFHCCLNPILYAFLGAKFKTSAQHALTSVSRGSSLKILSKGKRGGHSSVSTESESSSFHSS
# CXCR4 [5] = target: CXCR4 (Mus musculus, UniProt P70658)
# [6] = tested on: mice subjected to cecal ligation and puncture (CLP); experiment: CLP sepsis: bleeding time, D-dimer, platelet counts (DIC); format: in vivo
# Description: Systemic inflammatory responses, the derangement of coagulation and fibrinolysis in DIC is mediated by several pro-inflammatory cytokines. Changes in bleeding time and increases in D-dimer, which is a product of excessive counter-regulatory fibrinolysis, is a hallmark of disseminated intravascular coagulation, leading to widespread deposition of fibrin in the circulation, contributing to multi organ failure and death in septic patients. […] A. Bleeding time was measured 24 h after CLP and immediate onset of treatment. […] B. D-dimer levels were measured 48 hours after CLP. As a surrogate marker of the amount of fibrin deposition, D-dimer was increased after CLP, to a higher extent in vehicle-treated mice than in CXCR2 pepducin-treated mice. C. Depicts the bleeding time of mice that were treated 8 h after CLP. D. Depicts the D-dimer levels of mice treated 8 h after CLP.
# Therefore, systemic platelet activation was observed by measuring platelet counts and D-dimer levels, a marker of the increased fibrin production and subsequent fibrinolysis that occurs during DIC. […] When the CXCR1/2 pepducin treatment was delayed until 8 h after the CLP procedure, D-dimer levels were still reduced by 60-70%.
# [7] = tested on: mice subjected to cecal ligation and puncture (CLP); experiment: CLP sepsis: BAL neutrophils and lung histology; format: in vivo
# Description: Adult respiratory […] syndrome (ARDS) results from excessive neutrophil infiltration into lungs and their activation, leading to fibrin deposition. Sepsis can cause ARDS, which has a high lethality. Panels A and B: Mice were sacrificed 24 hours after CLP and BAL was performed. Neutrophils were counted after staining with Giemsa, TNF was measured by ELISA. *p<0.02 vs. vehicle treated group. C Lung histology. Mice were sacrificed 48 hours after CLP.
# Blockade of CXCR1/2 signaling with pepducins reversed several criteria of established SIRS in the septic mice. First, the effect of CXCR1/2 pepducins on systemic KC levels, the mouse IL-8 ortholog was examined. In untreated mice, KC levels rose over the 16 h period after CLP and remained elevated for at least 48 h. Following administration of the CXCR1/2 pepducins at the 8 h time point, the systemic KC levels rapidly dropped and remained low thereafter. Many of the untreated CLP mice became tachypnic and hypoxemic as early as 24 h and this correlated well with mortality. During sepsis, bacterial endotoxin stimulates lung epithelia to secrete IL-8 which recruits and activates leukocytes. The resulting neutrophil margination eventually leads to lung damage. The number of neutrophils in the bronchioalveolar lavage (BAL) fluid of untreated mice increased by 100-fold as early as 4 h after CLP and then rose to 200-300 fold after 8 h. […]
# [8] = tested on: mice subjected to cecal ligation and puncture (CLP); experiment: CLP sepsis: plasma liver enzyme levels (AST, ALT); format: in vivo; conditions: for plasma levels of ALT: 24 hours after CLP
# Description: Since organ failure determines the outcome of patients in SIRS, liver function was investigated. Mice were sacrificed 24 hours after CLP and plasma levels of ALT, an enzyme that increases with loss of liver function, were measured. In sham-treated mice, i.e., abdominal incision without cecal ligation and puncture, no elevation of ALT was observed.
# Liver failure is a common sequalae of severe sepsis. Treatment with the CXCR1/2 pepducins right after CLP reduced liver damage as evidenced by decreases of 52-87% in liver enzyme levels (AST, ALT) whereas the CXCR4 pepducin, x4pal-i1, had no effect. When CXCR1/2 pepducin treatment was initiated 8 h after CLP, the rise in plasma AST and ALT levels were halted by the 16 h time point and then dropped to near normal levels.
# CXCR4 [9] = target: T1, CXCR4; conditions: CXCR4 co-expressed with CXCR1 or CXCR2
# Target sequence in this assay (P61073 whole entry, species assumed): as the sequence (P61073 whole entry) above
# [10] = tested on: MDA-MB-231 human breast cancer cells; experiment: Chemotaxis assay (20 h, 48 blindwell microchemotaxis chamber) toward NIH3T3 conditioned media, MDA-MB-231; format: cell-based; conditions: MDA-MB-231, NIH3T3 conditioned media, FIG. 27
# Description: (§2) Conditioned media was prepared from NIH3T3. Chemotaxis assays (20 h) were performed using a 48 blindwell microchemotaxis chamber (Neuroprobe) equipped with […] pore nitrocellulose filters for OVCAR-4 human ovarian cancer cells and MDA-MB-231 human breast cancer cells. Data is expressed as chemotaxis index which is the ratio between the distance of migration toward NIH3T3 conditioned media over migration toward RPMI medium alone.
# [11] = tested on: OVCAR-4 human ovarian cancer cells; experiment: Chemotaxis assay (20 h, 48 blindwell microchemotaxis chamber) toward NIH3T3 conditioned media, OVCAR-4; format: cell-based; conditions: OVCAR-4, NIH3T3 conditioned media, FIG. 27
# Description: as §2
# [12] = thioglycollate i.p., pepducin i.v., 4 hours
# CXCR4 (Mus musculus, UniProt P70658), sequence (P70658 whole entry): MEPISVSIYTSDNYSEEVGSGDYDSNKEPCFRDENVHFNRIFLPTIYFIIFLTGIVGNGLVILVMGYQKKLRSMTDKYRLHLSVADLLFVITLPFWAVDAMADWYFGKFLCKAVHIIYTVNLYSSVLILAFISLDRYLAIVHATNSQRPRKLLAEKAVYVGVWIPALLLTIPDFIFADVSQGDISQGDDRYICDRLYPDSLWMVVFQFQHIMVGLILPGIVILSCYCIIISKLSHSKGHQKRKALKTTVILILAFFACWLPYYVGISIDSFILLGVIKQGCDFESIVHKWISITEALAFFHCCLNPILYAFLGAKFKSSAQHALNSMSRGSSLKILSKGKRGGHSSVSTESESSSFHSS
compound,measurement,setting,value
NCC[C@H](NC(=O)[C@H](Cc1ccc(F)c(F)c1)NC(=O)Nc1ccc2c(CN3CCCC3)cn(Cc3c(Cl)cccc3Cl)c2c1)C(=O)NCc1ccccc1 [RWJ-56110],thrombin activation of PAR4-dependent aggregation,human platelets,regained full activation
"CXCR1/CXCR2 i1 loop pepducin, sequence YSRVGRSVTD, lithocholate lipid modification (SEQ ID NO 20, 23) (also: lithocholate lipid modification) [x1/2i1LCA10]",peripheral leukocyte count,healthy untreated mice,neither x1/2pal-i3 nor x1/2LCA-i1 altered the leukocyte count
same,sepsis-induced mortality,"[1]; pepducin immediately after CLP, 2.5 mg/kg then 1 mg/kg until day 6",highly significant decrease
same,"IC50, inhibition of transmigration of neutrophils into the peritoneal cavity",[2]; [12],0.15 mg/kg
same,transmigration of neutrophils into the peritoneal cavity,[2]; [12],completely inhibited
same,peripheral blood leukocyte levels,[3],remained in the normal range
same,peripheral blood leukocyte levels,[3]; listed as x1/2LCA-i1,within the normal range
same,migration of leukocytes towards SDF-1α,CXCR4 [4],does not inhibit migration
same,migration of leukocytes towards SDF-1α,CXCR4 [5],does not inhibit migration
same,bleeding time,"[6]; 24 h after CLP, immediate onset of treatment",normal bleeding times
same,D-dimer levels,[6]; 48 hours after CLP,significant reductions
same,lung fibrin deposition (histology),[7]; lungs harvested at 48 h after CLP,significant protection against fibrin deposition
same,neutrophils in bronchioalveolar lavage (BAL) fluid,[7]; treatment at 8 h after CLP,rapid drop
same,plasma levels of ALT,[8],an increase was observed but it was significantly less compared to vehicle treated mice
same,inhibition of CXCR4,CXCR4 [9],does not inhibit CXCR4
"CXCR4 i1 loop pepducin, CXCR4 antagonist; x4i1pal12 is MGYQKKLRSMTD with palmitate (SEQ ID NO 25) (also: palmitate) [x4pal-i1]",peripheral leukocyte count,healthy untreated mice,caused a leukocytosis
same,effect on survival,[1]; CLP mice,no effect on survival
same,transmigration of neutrophils into the peritoneal cavity,[2]; [12],substantial increase
same,"EC50, increase in peritoneal neutrophils",[2]; thioglycollate peritonitis,~0.1 mg/kg
same,peripheral blood leukocyte levels,[3],accelerated leukocytosis on day 1 and leukopenia by day 7
same,peripheral blood leukocyte levels,[3]; listed as x4i1pal12,"increased immediately, but decreased 5 days after CLP to very low levels"
same,chemotactic migration of breast cancer cells,[10],block chemotactic migration
same,chemotactic migration of ovarian cancer cells,[11],block chemotactic migration
same,plasma levels of ALT,[8],an increase in ALT
same,"effect on liver damage, liver enzyme levels (AST, ALT)",[8]; treatment right after CLP,no effect
"x1/2pal-i1: I1-loop pepducin based on CXCR1/2; x1/2i1pal12 is ILYSRVGRSVTD with palmitate (SEQ ID NO 18, 21) (also: palmitate)",chemotactic migration of breast cancer cells,[10],block chemotactic migration
same,chemotactic migration of ovarian cancer cells,[11],block chemotactic migration
